Six molecules from ChEMBL document CHEMBL1629630, “Inhibition of inositol phosphorylceramide synthase by the cyclic peptide aureobasidin A” (Antimicrob Agents Chemother, 2009) can be followed below.

Several values for one entry are separate records, joined by “and”; a condition that tells them apart may be missing. Identical values can stand only once. Activity calls are given as the source filed them. The rule behind the calls is not given here. Numbered stars: 1 amine (or outer) side, 2 acyl side, 3 side chain; on linkers, the order of the positions; unused ones are H or OH. Square brackets hold non-standard residues; d marks the D form. Peptide text beside a SMILES is read from it. X1 = CC[C@@H](C)[C@@H](O[*:1])C(=O)[*:2]; NMeVal(β-OH) = CN[C@H](C(=O)O)C(C)(C)O; NMeF = CN[C@@H](Cc1ccccc1)C(=O)O; aIle = CC[C@@H](C)[C@H](N)C(=O)O; NMeV = CN[C@H](C(=O)O)C(C)C

Experiment [1] has as its target T1, Inositol phosphorylceramide synthase (Candida albicans (strain SC5314 / ATCC MYA-2876) (Yeast), UniProt O13332).
T1 sequence (O13332 whole entry): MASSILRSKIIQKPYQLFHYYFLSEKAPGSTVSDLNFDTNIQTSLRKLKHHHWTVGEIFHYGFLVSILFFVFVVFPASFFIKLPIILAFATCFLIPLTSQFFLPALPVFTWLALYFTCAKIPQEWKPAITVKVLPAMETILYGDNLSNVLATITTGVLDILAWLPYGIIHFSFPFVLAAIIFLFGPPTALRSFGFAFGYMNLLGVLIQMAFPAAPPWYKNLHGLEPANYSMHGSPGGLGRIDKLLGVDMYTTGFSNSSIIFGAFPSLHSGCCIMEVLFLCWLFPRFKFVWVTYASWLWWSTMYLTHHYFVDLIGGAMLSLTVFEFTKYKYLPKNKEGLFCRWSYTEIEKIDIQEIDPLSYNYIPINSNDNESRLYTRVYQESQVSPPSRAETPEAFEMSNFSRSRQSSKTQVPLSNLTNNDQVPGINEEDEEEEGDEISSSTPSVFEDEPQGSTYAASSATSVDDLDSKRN
As to the kind of experiment: Inhibition of Candida albicans inositol phosphorylceramide synthase.

Experiment [2] has as its target T2, Inositol phosphorylceramide synthase catalytic subunit AUR1 (Saccharomyces cerevisiae S288c, UniProt P36107).
T2 sequence (P36107 whole entry): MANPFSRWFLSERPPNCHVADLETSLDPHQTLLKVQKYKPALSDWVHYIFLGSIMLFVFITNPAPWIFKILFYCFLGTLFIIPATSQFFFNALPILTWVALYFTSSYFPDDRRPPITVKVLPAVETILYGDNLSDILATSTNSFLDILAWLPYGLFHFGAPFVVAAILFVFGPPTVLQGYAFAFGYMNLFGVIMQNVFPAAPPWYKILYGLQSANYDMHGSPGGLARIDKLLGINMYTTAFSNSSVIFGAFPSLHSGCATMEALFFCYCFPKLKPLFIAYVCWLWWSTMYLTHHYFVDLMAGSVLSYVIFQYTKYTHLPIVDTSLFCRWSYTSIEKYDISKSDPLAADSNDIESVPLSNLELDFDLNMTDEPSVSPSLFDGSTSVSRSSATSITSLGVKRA
Description: Inhibition of Saccharomyces cerevisiae SJ21R inositol phosphorylceramide synthase preincubated for 30 mins.

The target in experiment [3] is T1, Inositol phosphorylceramide synthase.
Description: (§1) Inhibition of Candida albicans ATCC 38247 inositol phosphorylceramide synthase preincubated for 30 mins
Experiment [4] concerns the target T3, Inositol phosphorylceramide synthase (Candida albicans (strain SC5314 / ATCC MYA-2876) (Yeast)) (UniProt O13332).
T3 sequence (whole entry): T1 sequence (O13332 whole entry)
Description: Inhibition of Candida albicans ATCC 38247 inositol phosphorylceramide synthase. The note with it: TDE = time-dependent effect.

Experiment [5] has as its target Inositol phosphorylceramide synthase catalytic subunit AUR1 (Saccharomyces cerevisiae S288c, UniProt P36107). Description: Inhibition of aureobasidin A-resistant Saccharomyces cerevisiae inositol phosphorylceramide synthase preincubated for 30 mins.
In experiment [6] the target is T2, Inositol phosphorylceramide synthase catalytic subunit AUR1. Description: Inhibition of Saccharomyces cerevisiae inositol phosphorylceramide synthase.
Experiment [7] addresses T3, Inositol phosphorylceramide synthase (Candida albicans (strain SC5314 / ATCC MYA-2876) (Yeast)). As to the kind of experiment: Irreversible inhibition of Candida albicans ATCC 38247 inositol phosphorylceramide synthase.
Experiment [8] has as its target T4, Aureobasidin-resistance protein (Neosartorya fumigata (Aspergillus fumigatus), UniProt Q9Y745).
T4 sequence (Q9Y745 whole entry): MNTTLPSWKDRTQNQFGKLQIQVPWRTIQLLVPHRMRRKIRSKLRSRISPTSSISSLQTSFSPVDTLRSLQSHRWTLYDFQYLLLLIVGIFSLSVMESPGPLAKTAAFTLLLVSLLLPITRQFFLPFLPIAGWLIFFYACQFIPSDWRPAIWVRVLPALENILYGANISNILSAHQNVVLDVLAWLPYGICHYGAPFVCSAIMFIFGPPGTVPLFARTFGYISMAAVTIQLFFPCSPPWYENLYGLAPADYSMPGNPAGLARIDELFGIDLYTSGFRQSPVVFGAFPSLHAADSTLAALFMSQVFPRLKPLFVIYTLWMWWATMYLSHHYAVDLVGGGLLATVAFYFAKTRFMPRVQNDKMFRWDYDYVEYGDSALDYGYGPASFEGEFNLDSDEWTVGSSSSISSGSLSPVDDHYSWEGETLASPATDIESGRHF
Description: Inhibition of Aspergillus fumigatus inositol phosphorylceramide synthase.

The target of experiment [9] is T3, Inositol phosphorylceramide synthase (Candida albicans (strain SC5314 / ATCC MYA-2876) (Yeast)). The note with it: ATCC 38247.
Description: as §1
For experiment [10], the target named is T2, Inositol phosphorylceramide synthase catalytic subunit AUR1. Description: Reversible inhibition of Saccharomyces cerevisiae inositol phosphorylceramide synthase.
Experiment [11] addresses T1, Inositol phosphorylceramide synthase. Description: Reversible inhibition of Candida albicans inositol phosphorylceramide synthase.

A word on the IC50: it is the point on the concentration scale where inhibition reaches its midpoint. Higher therefore signals a need for much substance. By Ki is commonly meant the dissociation constant of the complex between target and ligand, obtained from inhibition or displacement. Turning to `CCCCCCCCCC[C@H](C)[C@@H](O)[C@@H](C)/C=C(C)/C=C(\C)C(=O)[C@H](C)/C=C(\C)C(=O)O[C@H](CO)[C@@H](O)[C@H](O)C(=O)O` [KHAFREFUNGIN], the IC50 in experiment [1] turned out to be 0.6 nM; in experiment [2] it was 43 nM; in experiment [5], 11300 nM. The affinity in experiment [3] corresponds to a Ki of 0.43 nM. The inhibition entry in [4] was “tde”.

Regarding `CC[C@@H](C)[C@@H]1NC(=O)[C@@H]2CCCN2C(=O)[C@H](Cc2ccccc2)N(C)C(=O)[C@H](Cc2ccccc2)NC(=O)[C@H](C(C)C)N(C)C(=O)[C@@H]([C@H](C)CC)OC(=O)[C@H](C(C)(C)O)N(C)C(=O)[C@H](CC(C)C)NC(=O)[C@H](C(C)C)N(C)C1=O` [AUREOBASIDIN A] (cyclo(F[NMeF]P[aIle][NMeV]L[NMeVal(β-OH)][X1][NMeV])), the IC50 in experiment [6], in experiment [1] and in experiment [8] was 0.2 nM throughout. The Ki in experiment [1] came out at 0.55 nM; in [2], 0.23 nM; in [3], 0.18 nM; in experiment [5] it was 1400 nM. Moreover, the inhibition result in experiment [7] was “Active”. For the same molecule, the inhibition result in experiment [4] is “tde”. Besides, in experiment [9], the Kinact was 2.5 /us and 1.8 /us.

In experiment [3], `CCCC(CCC)C(=O)N(C)C(C(=O)O[C@@H](C(=O)N(C)CCc1ccc(OC)c(OC)c1)c1ccccc1)C(C)(C)O` (stereo partly drawn) came in with a Ki of 7900 nM.

As to `C=C1/C=C(\C)[C@H](CC)CC(=O)[C@H](C)C(=O)[C@@](O)(CO)C/C(OC)=C/[C@@H](C)C1` [RUSTMICIN], the IC50 in experiment [10] came to 3.8 nM; in [2] it was 13 nM; in experiment [5] it was 27200 nM; in experiment [11] it was 3.8 nM. Moreover, affinity in [3] was put at a Ki of 16 nM.

For `CCCCCCCCC(=O)N(C)C(C(=O)O[C@@H](C(=O)N(C)CCc1ccc(OC)c(OC)c1)c1ccccc1)C(C)(C)O` (stereo partly drawn), the Ki in [3] was determined as 11800 nM.

`COc1ccc(CCN(C)C(=O)[C@H](OC(=O)C(N(C)C(=O)CCCCCc2ccccc2)C(C)(C)O)c2ccccc2)cc1OC` (stereo partly drawn) gave a Ki in experiment [3] of 10500 nM. The Ki values of the last two molecules are within 1.5-fold of each other.
